# From patent US8637511B2, “Aminopyrimidines useful as kinase inhibitors” (Vertex Pharmaceuticals Incorporated, priority 2005, dated 2014)
# “And” between values parts separate entries of the source, which are not always exact repeats. Identical values can stand only once. Like-named read-outs stand apart in the source and are kept apart here.
# Legend:
# Assay type in all cases: biochemical
# Aurora-2 (Aurora A) = target: T1, Aurora-2 (Aurora A) (Homo sapiens, UniProt O14965); assay: Aurora-2 (Aurora A) inhibition assay, coupled enzyme; conditions: read-out: Aurora A kinase Ki value
# T1 sequence (O14965 1-403): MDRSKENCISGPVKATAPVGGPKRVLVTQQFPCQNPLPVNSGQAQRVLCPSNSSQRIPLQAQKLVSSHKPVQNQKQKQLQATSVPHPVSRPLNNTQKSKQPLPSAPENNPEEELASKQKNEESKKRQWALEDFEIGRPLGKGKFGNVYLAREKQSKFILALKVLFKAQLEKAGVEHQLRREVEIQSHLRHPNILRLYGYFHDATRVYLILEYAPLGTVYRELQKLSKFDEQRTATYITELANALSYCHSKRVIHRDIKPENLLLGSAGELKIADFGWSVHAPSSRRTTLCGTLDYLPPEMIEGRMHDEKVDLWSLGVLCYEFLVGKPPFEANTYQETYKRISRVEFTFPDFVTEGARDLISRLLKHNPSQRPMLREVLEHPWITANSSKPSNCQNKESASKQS
# Procedure, shortened: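 Coupled pyruvate kinase/lactate dehydrogenase assay with NADH in pH 7.5 Hepes containing MgCl2, DTT and NaCl, using 40 nM Aurora-2 at 30 °C. After a 10 min preincubation, enzyme addition started the reaction, and initial rates were taken over 10 min. IC50 and Ki came from non-linear regression.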
# Aurora-1 (Aurora B) = Aurora-1 (Aurora B) (Homo sapiens, UniProt Q96GD4); assay: Aurora-1 (Aurora B) inhibition assay (radiometric); conditions: read-out: Aurora B kinase Ki value
# Procedure, shortened: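 Radiometric ^33P incorporation into peptide substrate, with [γ-^33P]-ATP at 800 μM final, in 25 mM HEPES pH 7.5, 10 mM MgCl2, 0.1% BSA, 10% glycerol. Compound preincubated with enzyme for 10 min at 25° C, reaction run 3 h, then captured on phosphocellulose. Ki from initial rates by non-linear regression after background subtraction.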
# FLT-3 = target: T2, FLT-3 (Homo sapiens, UniProt P36888); assay: FLT-3 inhibition assay, radiometric filter-binding
# T2 sequence (P36888 27-993): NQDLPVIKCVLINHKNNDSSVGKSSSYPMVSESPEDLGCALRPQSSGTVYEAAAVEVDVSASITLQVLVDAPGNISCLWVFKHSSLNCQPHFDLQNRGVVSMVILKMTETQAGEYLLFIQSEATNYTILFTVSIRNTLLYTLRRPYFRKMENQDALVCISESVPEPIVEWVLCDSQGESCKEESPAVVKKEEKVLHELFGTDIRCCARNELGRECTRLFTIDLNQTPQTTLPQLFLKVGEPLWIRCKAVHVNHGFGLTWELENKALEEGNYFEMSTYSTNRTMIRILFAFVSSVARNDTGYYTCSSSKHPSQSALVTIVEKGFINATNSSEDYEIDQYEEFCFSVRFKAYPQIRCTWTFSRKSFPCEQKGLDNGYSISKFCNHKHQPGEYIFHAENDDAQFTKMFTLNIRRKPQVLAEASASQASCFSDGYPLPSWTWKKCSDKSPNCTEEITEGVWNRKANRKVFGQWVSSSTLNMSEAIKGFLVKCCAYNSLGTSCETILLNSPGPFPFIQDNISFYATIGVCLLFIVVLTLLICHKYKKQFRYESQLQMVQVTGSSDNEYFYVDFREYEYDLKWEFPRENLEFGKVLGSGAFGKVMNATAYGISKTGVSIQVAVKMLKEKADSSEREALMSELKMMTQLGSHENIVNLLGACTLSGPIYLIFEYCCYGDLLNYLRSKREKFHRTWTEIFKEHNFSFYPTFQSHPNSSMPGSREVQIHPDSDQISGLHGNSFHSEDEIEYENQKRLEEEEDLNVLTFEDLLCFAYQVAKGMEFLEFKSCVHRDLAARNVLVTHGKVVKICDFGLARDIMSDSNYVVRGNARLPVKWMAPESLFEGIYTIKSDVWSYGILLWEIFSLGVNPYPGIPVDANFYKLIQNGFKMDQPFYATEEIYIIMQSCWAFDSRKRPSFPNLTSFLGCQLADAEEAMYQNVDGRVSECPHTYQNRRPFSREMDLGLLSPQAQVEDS
# Sequence of Aurora-1 (Aurora B) (Q96GD4 whole entry): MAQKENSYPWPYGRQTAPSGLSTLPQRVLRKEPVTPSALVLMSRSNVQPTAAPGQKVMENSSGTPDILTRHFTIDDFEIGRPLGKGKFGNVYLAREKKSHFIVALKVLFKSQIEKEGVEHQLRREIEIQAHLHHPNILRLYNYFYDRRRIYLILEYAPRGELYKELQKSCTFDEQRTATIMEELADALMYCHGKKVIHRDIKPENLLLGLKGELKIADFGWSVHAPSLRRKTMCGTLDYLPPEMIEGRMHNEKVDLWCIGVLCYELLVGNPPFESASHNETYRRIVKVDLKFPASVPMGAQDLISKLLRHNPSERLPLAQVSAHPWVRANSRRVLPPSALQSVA
Compound,Ki (Aurora-2 (Aurora A)),Ki (Aurora-1 (Aurora B)),Ki (FLT-3),Ki (FLT-3; read-out: FLT-3 Ki value)
Cc1cc(Nc2cc(N3CC(C)C3)nc(Sc3ccc(NC(=O)c4ccccc4Cl)cc3)n2)n[nH]1 [Compound 39],1 to 5 nM,10 to 50 nM and < 25 nM,50 to 150 nM,
CC1=NN=C(Nc2cc(N3CCC3)nc(Sc3ccc(NC(=O)c4ccccc4)cc3)n2)C1 [Compound 52],5 to 200 nM,50 to 2000 nM,,150 to 1000 nM
Cc1ccc2cc(Sc3nc(Nc4cc(C)[nH]n4)cc(N4CC(N5CCCC5)C4)n3)ccc2n1 [Compound 182],1 to 5 nM,10 to 50 nM and < 25 nM,50 to 150 nM,
CCC(=O)Nc1ccc(Sc2nc(Nc3cc(C)n[nH]3)cc(N3CC(O)(C(F)(F)F)C3)n2)cc1 [Compound 94],1 to 5 nM,10 to 50 nM and < 25 nM,≤ 50 nM,
